Measured values: patent US20060069132A1, “Azolecarboxamide herbicides” (priority 2004, published 2006)

Tests used:
[1] = system: morningglory; assay: Test C pre-/postemergence herbicide test; format: in vivo, Ipomoea coccinea; set-up: key to Plant response rating, Morningglory: 0 = no effect, 100 = complete control
Procedure, shortened: (§1)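 Visual injury scores run from 0 (no effect) to 100 (complete control), assessed relative to untreated controls 12 to 14 days after treatment in the greenhouse. Chemicals were formulated in a non-phytotoxic solvent mixture with surfactant and applied to soil after planting or to emerged plants at the 1- to 4-leaf stage.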

[2] = system: smallflower umbrella sedge; assay: Test C flooded paddy test; format: in vivo, Cyperus difformis; details: for Plant response rating, Sedge, Umbrella: visual rating after 12 to 14 days
[3] = system: barnyardgrass; assay: Test C flooded paddy test; format: in vivo, Echinochloa crus-galli; details: for Plant response rating, Barnyardgrass: visual rating after 12 to 14 days
Procedure, shortened: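 Postemergence sprays applied to plants 2 to 18 cm tall (1- to 4-leaf stage); paddy species grown to 2-leaf stage under flooding. After 12 to 14 days in greenhouse, visual rating versus untreated controls on 0–100 scale (0 no effect, 100 complete control).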

[4] = system: common ragweed; assay: Test C pre-/postemergence herbicide test; format: in vivo, Ambrosia elatior; set-up: key to Plant response rating, Ragweed: 0 = no effect, 100 = complete control
Procedure, shortened: as §1

[5] = system: soybean; assay: Test C pre-/postemergence herbicide test; format: in vivo, Glycine max
Procedure, shortened: as §1

[6] = system: corn; assay: Test C pre-/postemergence herbicide test; format: in vivo, Zea mays
Procedure, shortened: as §1

[7] = system: kochia; assay: Test C pre-/postemergence herbicide test; format: in vivo, Kochia scoparia
Procedure, shortened: as §1

[8] = system: giant foxtail; assay: Test C pre-/postemergence herbicide test; format: in vivo, Setaria faberi
Procedure, shortened: as §1

[9] = system: Surinam grass; assay: Test C pre-/postemergence herbicide test; format: in vivo, Urochloa decumbens
Procedure, shortened: as §1

[10] = system: velvetleaf; assay: Test A pre-/postemergence herbicide test; format: in vivo, Abutilon theophrasti; details: for Plant response rating, Velvetleaf: Postemergence; for Velvetleaf plant response rating: Preemergence
Procedure, shortened: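 Pre: seeded sandy loam, directed soil spray, compound in non-phytotoxic solvent + surfactant. Post: 1–2-leaf plants (2–10 cm), sprayed to runoff. Greenhouse ~10 d; visual injury vs untreated, 0–100 scale.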

[11] = system: rice; assay: Test C flooded paddy test; format: in vivo, Oryza sativa; details: for Plant response rating, Rice: visual rating after 12 to 14 days
Procedure, shortened: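 Plants were grown to the 1- to 4-leaf stage (2–18 cm) and then treated postemergence, or grown to the 2-leaf stage for the flooded paddy test. They were held in a greenhouse for 12 to 14 days and then scored by eye against controls, where 0 is no effect and 100 is complete control.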

[12] = 250 g ai/ha, scale 0 to 100 (0 no effect, 100 complete control), visual, 12 to 14 days, preemergence
[13] = Postemergence, 500 g ai/ha, scale 0 to 100
[14] = Postemergence, 250 g ai/ha, scale 0 to 100, 0 no effect, 100 complete control
[15] = Preemergence, 500 g ai/ha, scale 0 to 100, 0 no effect, 100 complete control
[16] = postemergence, 125 g ai/ha, scale 0 to 100
[17] = postemergence, 62 g ai/ha, scale 0 to 100
[18] = 62 g ai/ha, scale 0 to 100 (0 no effect, 100 complete control)
[19] = 125 g ai/ha, scale of 0 to 100, 0 is no effect, 100 is complete control
[20] = 250 g ai/ha, scale 0 to 100 (0 no effect, 100 complete control)
[21] = 500 g ai/ha, scale 0 to 100 (0 no effect, 100 complete control)
[22] = 125 g ai/ha, scale 0-100, preemergence
[23] = Postemergence, 125 g ai/ha, scale 0 to 100, 0 no effect, 100 complete control
[24] = 2000 g ai/ha, 0 to 100 scale, 0 no effect, 100 complete control
[25] = 62 g ai/ha, preemergence, scale 0 to 100
[26] = 250 g ai/ha, scale 0-100, preemergence
[27] = 500 g ai/ha, scale 0 to 100 (0 no effect, 100 complete control), visual, 12 to 14 days, preemergence
[28] = 125 g ai/ha, scale 0 to 100 (0 no effect, 100 complete control)
[29] = 250 g ai/ha, scale of 0 to 100, 0 is no effect, 100 is complete control
[30] = 125 g ai/ha, scale 0 (no effect) to 100 (complete control), visual, 12 to 14 days, preemergence

SMILES: C=Cn1nc(C(C)(C)C)cc1C(=O)Nc1cccc(C(=O)N(CC)CC)c1 [Compound 34]
- Plant response rating (0 = no effect, 100 = complete control), Morningglory ([1]; 62 g ai/ha, preemergence): 0
- Plant response rating, Morningglory [1, 12]: 0
- Morningglory plant response rating [1, 13]: 40
- Plant response rating, Morningglory [1, 14]: 10
- Morningglory plant response rating [1, 15]: 100
- Plant response rating, Morningglory [1, 16]: 10
- Plant response rating, Morningglory [1, 17]: 10
- Sedge, Umbrella plant response rating [2, 18]: 50
- Sedge, Umbrella plant response rating [2, 19]: 80
- Plant response rating, Sedge, Umbrella [2, 20]: 80
- Plant response rating, Sedge, Umbrella [2, 21]: 90
- Barnyardgrass plant response rating [3, 18]: 0
- Barnyardgrass plant response rating [3, 19]: 35
- Plant response rating, Barnyardgrass [3, 20]: 45
- Plant response rating, Barnyardgrass [3, 21]: 65
- Plant response rating (0 = no effect, 100 = complete control), Ragweed ([4]; 62 g ai/ha, preemergence): 0
- Plant response rating, Ragweed [4, 12]: 0
- Ragweed plant response rating [4, 13]: 40
- Plant response rating, Ragweed [4, 14]: 40
- Ragweed plant response rating [4, 15]: 40
- Plant response rating, Ragweed [4, 16]: 30
- Plant response rating, Ragweed [4, 17]: 20
- Plant response rating (0 = no effect, 100 = complete control), Soybean ([5]; 62 g ai/ha, preemergence): 0
- Plant response rating, Soybean [5, 12]: 0
- Soybean plant response rating [5, 13]: 80
- Plant response rating, Soybean [5, 14]: 80
- Soybean plant response rating [5, 15]: 0
- Plant response rating, Soybean [5, 16]: 80
- Plant response rating, Soybean [5, 17]: 70
- Plant response rating (0 = no effect, 100 = complete control), Corn ([6]; 62 g ai/ha, preemergence): 0
- Plant response rating, Corn [6, 22]: 0
- Plant response rating, Corn [6, 12]: 0
- Corn plant response rating [6, 13]: 70
- Plant response rating, Corn [6, 23]: 30
- Plant response rating, Corn [6, 14]: 50
- Corn plant response rating [6, 15]: 0
- Plant response rating, Corn [6, 17]: 20
- Plant response rating (0 = no effect, 100 = complete control), Kochia ([7]; 62 g ai/ha, preemergence): 90
- Plant response rating, Kochia [7, 22]: 90
- Kochia plant response rating [7, 13]: 90
- Plant response rating, Kochia [7, 23]: 90
- Plant response rating, Kochia [7, 14]: 90
- Kochia plant response rating [7, 15]: 100
- Plant response rating, Kochia [7, 17]: 80
- Plant response rating (0 = no effect, 100 = complete control), Foxtail, Giant ([8]; 62 g ai/ha, preemergence): 10
- Plant response rating, Foxtail, Giant [8, 22]: 70
- Plant response rating, Foxtail, Giant [8, 12]: 90
- Foxtail, Giant plant response rating [8, 13]: 40
- Plant response rating, Foxtail, Giant [8, 23]: 40
- Plant response rating, Foxtail, Giant [8, 14]: 40
- Foxtail, Giant plant response rating [8, 15]: 100
- Plant response rating, Foxtail, Giant [8, 17]: 20
- Plant response rating (0 = no effect, 100 = complete control), Surinam Grass ([9]; 62 g ai/ha, preemergence): 10
- Plant response rating, Surinam Grass [9, 12]: 60
- Surinam Grass plant response rating [9, 13]: 70
- Plant response rating, Surinam Grass [9, 14]: 50
- Surinam Grass plant response rating [9, 15]: 70
- Plant response rating, Surinam Grass [9, 16]: 30
- Plant response rating, Surinam Grass [9, 17]: 20
- Plant response rating, Velvetleaf ([10]; 500 g ai/ha, 0 to 100 scale, 0 no effect, 100 complete control): 20
- Plant response rating, Velvetleaf [10, 24]: 30
- Velvetleaf plant response rating ([10]; 500 g ai/ha, visual rating, 0 to 100 scale (0 no effect, 100 complete control)): 20
- Velvetleaf plant response rating [10, 24]: 25
- Rice plant response rating [11, 18]: 0
- Rice plant response rating [11, 19]: 0
- Plant response rating, Rice [11, 20]: 50
- Plant response rating, Rice [11, 21]: 55

SMILES: CCc1nn(C(C)C)nc1C(=O)Nc1cccc(C(=O)N(C)CC)c1 [Compound 386]
- Plant response rating, Morningglory [1, 25]: 55
- Plant response rating (0 = no effect, 100 = complete control), Morningglory ([1]; 125 g ai/ha, preemergence): 95
- Plant response rating, Morningglory [1, 26]: 100
- Plant response rating, Morningglory [1, 27]: 100
- Sedge, Umbrella plant response rating ([2]; 62 g ai/ha, scale 0 to 100): 65
- Sedge, Umbrella plant response rating [2, 28]: 75
- Sedge, Umbrella plant response rating [2, 29]: 80
- Plant response rating, Sedge, Umbrella [2, 21]: 80
- Barnyardgrass plant response rating [3, 18]: 30
- Barnyardgrass plant response rating [3, 28]: 50
- Barnyardgrass plant response rating [3, 29]: 80
- Plant response rating, Barnyardgrass [3, 21]: 95
- Plant response rating, Ragweed [4, 25]: 5
- Plant response rating (0 = no effect, 100 = complete control), Ragweed ([4]; 125 g ai/ha, preemergence): 98
- Plant response rating, Ragweed [4, 26]: 100
- Plant response rating, Ragweed [4, 27]: 100
- Plant response rating, Soybean [5, 25]: 90
- Plant response rating (0 = no effect, 100 = complete control), Soybean ([5]; 125 g ai/ha, preemergence): 90
- Plant response rating, Soybean [5, 26]: 95
- Plant response rating, Soybean [5, 27]: 95
- Plant response rating, Corn [6, 25]: 10
- Plant response rating (0 = no effect, 100 = complete control), Corn ([6]; 125 g ai/ha, preemergence): 60
- Plant response rating, Corn [6, 26]: 80
- Plant response rating, Corn [6, 27]: 85
- Plant response rating, Kochia [7, 25]: 30
- Plant response rating (0 = no effect, 100 = complete control), Kochia ([7]; 125 g ai/ha, preemergence): 100
- Plant response rating, Kochia [7, 26]: 100
- Plant response rating, Kochia [7, 27]: 100
- Plant response rating, Foxtail, Giant [8, 25]: 80
- Plant response rating (0 = no effect, 100 = complete control), Foxtail, Giant ([8]; 125 g ai/ha, preemergence): 90
- Plant response rating, Foxtail, Giant [8, 26]: 90
- Plant response rating, Foxtail, Giant [8, 27]: 100
- Plant response rating, Surinam Grass [9, 25]: 80
- Plant response rating (0 = no effect, 100 = complete control), Surinam Grass ([9]; 125 g ai/ha, preemergence): 80
- Plant response rating, Surinam Grass [9, 26]: 95
- Plant response rating, Surinam Grass [9, 27]: 95
- Rice plant response rating ([11]; 62 g ai/ha, scale 0 to 100): 25
- Rice plant response rating [11, 28]: 65
- Rice plant response rating [11, 29]: 70
- Plant response rating, Rice [11, 21]: 75

SMILES: C=CCn1nc(C(C)(C)C)cc1C(=O)Nc1cccc(C(=O)NCC)c1 [Compound 56]
- Plant response rating (0 = no effect, 100 = complete control), Morningglory ([1]; 62 g ai/ha, preemergence): 0
- Plant response rating, Morningglory [1, 30]: 0
- Plant response rating, Morningglory [1, 12]: 55
- Morningglory plant response rating [1, 15]: 55
- Sedge, Umbrella plant response rating [2, 18]: 45
- Sedge, Umbrella plant response rating [2, 19]: 85
- Sedge, Umbrella plant response rating [2, 29]: 90
- Plant response rating, Sedge, Umbrella [2, 21]: 90
- Barnyardgrass plant response rating [3, 18]: 0
- Barnyardgrass plant response rating [3, 19]: 20
- Barnyardgrass plant response rating [3, 29]: 65
- Plant response rating, Barnyardgrass [3, 21]: 80
- Plant response rating (0 = no effect, 100 = complete control), Ragweed ([4]; 62 g ai/ha, preemergence): 60
- Plant response rating, Ragweed [4, 30]: 95
- Plant response rating, Ragweed [4, 12]: 95
- Ragweed plant response rating [4, 15]: 95
- Plant response rating (0 = no effect, 100 = complete control), Soybean ([5]; 62 g ai/ha, preemergence): 0
- Plant response rating, Soybean [5, 30]: 0
- Plant response rating, Soybean [5, 12]: 10
- Soybean plant response rating [5, 15]: 15
- Plant response rating (0 = no effect, 100 = complete control), Corn ([6]; 62 g ai/ha, preemergence): 0
- Plant response rating, Corn [6, 30]: 0
- Plant response rating, Corn [6, 12]: 0
- Corn plant response rating [6, 15]: 0
- Plant response rating (0 = no effect, 100 = complete control), Kochia ([7]; 62 g ai/ha, preemergence): 75
- Plant response rating, Kochia [7, 30]: 90
- Plant response rating, Kochia [7, 12]: 95
- Kochia plant response rating [7, 15]: 95
- Plant response rating (0 = no effect, 100 = complete control), Foxtail, Giant ([8]; 62 g ai/ha, preemergence): 45
- Plant response rating, Foxtail, Giant [8, 30]: 85
- Plant response rating, Foxtail, Giant [8, 12]: 100
- Foxtail, Giant plant response rating [8, 15]: 100
- Plant response rating (0 = no effect, 100 = complete control), Surinam Grass ([9]; 62 g ai/ha, preemergence): 10
- Plant response rating, Surinam Grass [9, 30]: 15
- Plant response rating, Surinam Grass [9, 12]: 60
- Surinam Grass plant response rating [9, 15]: 75
- Rice plant response rating [11, 18]: 0
- Rice plant response rating [11, 19]: 15
- Rice plant response rating [11, 29]: 25
- Plant response rating, Rice [11, 21]: 35
